Publication PMC11042424, “Development of a First-in-Class RIPK1 Degrader to Enhance Antitumor Immunity” (Research Square, 2024)
Entries after “also recorded” stand apart in the source; their conditions may differ.

Test system: whole cellular proteome of MDA-MB-231 cells
Test: Proteome profiling of LD4172 induced protein degradation
Type: cell-based, human
Settings: 200 nM, 6 h
Protocol: One million MDA-MB-231 cells were seeded in 6-well plates. The following day, cells were treated in triplicate with LD4172 (200 nM) or LD4172-NC (200 nM) for 6 h. The cells were washed thrice with ice-cold PBS. The cell pellets were lysed, reduced, alkylated, and digested using EasyPep™ MS Sample Prep Kits (A45733,ThermoFisher) according to the manufacturer’s instructions. The same amount of peptide from each condition was labeled with a tandem mass tag (TMT) reagent (90113, ThermoFisher). The 10-plex TMT reagent was incubated with each peptide sample at a ratio of 1:8 (peptide:TMT label). The 10-plex labeling reactions were performed for 1 h at room temperature. The labeled peptide samples were quenched by adding 50 μL of 5% hydroxylamine and 20% formic acid solution for 5 min and then mixed. […]
Proteome Discoverer 2.4 (Thermo Fisher Scientific) was used. RAW file processing and controlling peptide- and protein-level false discovery rates, assembling proteins from peptides, and protein quantification from peptides. […] PSMs with precursor isolation interference values > 50% and average TMT-reporter ion signal-to-noise values (S/N) < 10 were excluded from quantitation. […] Protein quantification uses both unique and […] peptides. […]

## Cc1ncsc1-c1ccc([C@H](C)NC(=O)[C@@H]2C[C@@H](O)CN2C(=O)[C@@H](NC(=O)CCCCCCCCCCC(=O)NCCCn2cc(-c3ccc4c(c3)CCN4C(=O)Cc3cccc(OC(F)(F)F)c3)c3c(N)ncnc32)C(C)(C)C)cc1 [LD4172]
  degradation of off-target kinases: no degradation of off-target kinases was observed
Vs LD4172-NC
  proteins degraded in whole cellular proteome: only protein showing >50% degradation; also recorded: RIPK1 was the only protein degraded
